{"source": "patent US7326697B2", "about": "“Methods for increasing the therapeutic response to electroconvulsive therapy” (Corcept Therapeutics, Inc., priority 2002, dated 2008)", "key": {"[1]": {"conditions": "in one study; cited from earlier work"}, "[2]": {"test": "Case: mental illness treated with mifepristone therapy followed by bilateral ECT", "format": "in vivo", "conditions": "one patient", "protocol": "The patient subsequently underwent four treatments of bilateral ECT while continuing mifepristone therapy. […] During each treatment session, the patient received between 60 and 100 mg of methohexital and between 60 and 80 mg of succinylcholine.\nFor the first ECT treatment, the patient was delivered a stimulus using the Thymatron ECT device at 35% with […] eeg seizure duration and 115 second motor duration. After the first treatment, the patient was better able to organize their thoughts and was able to engage in more appropriate conversations. The second treatment was also at 35%, but the eeg duration decreased to 61 seconds and no motor seizure was detected. Consequently on the third treatment, the energy setting was increased to 40% with 115 second eeg duration and 91 second motor duration. After the third treatment, the patient had fewer somatic delusions, was able to comprehend written text and was easier to engage in conversation."}}, "data": [{"smiles": "CC#C[C@]1(O)CC[C@H]2[C@@H]3CCC4=CC(=O)CCC4=C3[C@@H](c3ccc(N(C)C)cc3)C[C@@]21C", "note": "[mifepristone, (11β, 17β)-11-[4-(dimethylamino)phenyl]-17-hydroxy-17-(1-propynyl)estra-4,9-dien-3-one]", "values": [{"measurement": "fraction of the daily dose excreted in the urine", "setting": "[1]", "value": "less than 0.5%"}, {"measurement": "clinical response to ECT while continuing mifepristone therapy", "setting": "[2]; after four treatments of bilateral ECT, before the fifth", "value": "dramatically improved"}, {"measurement": "clinical response to mifepristone therapy alone", "setting": "[2]; before ECT", "value": "not significantly improving"}, {"measurement": "side-effects of ECT with continued mifepristone therapy", "setting": "[2]; four treatments of bilateral ECT", "value": "some impairment in short term memory but otherwise had no side-effects"}]}]}
